Source: US9750755B2, “Antimicrobial compositions and related methods” (DeLaval Holding AB, priority 2006, dated 2017)

Experiments:
S. aureus (ATCC 6538) = assay: Modified EN 1656 dilution neutralization test, milk as interferent, 30 seconds contact; type: cell-based, Staphylococcus aureus; details: 10% lactic acid used alone, typical
Procedure: (§1) The test bacteria were Eschericia coli (ATCC 11229), which were originally isolated from mastitis infection and obtained on commercial order from Mastitlaboratoriet, SVA, and Staphococcus aureus (ATCC6538 from Microbiologics, St. Cloud, Minn.), which was also isolated from mastitis infection.
(§2) According to a modified EN1656 dilution neutralization method, freeze dried E. coli (ATCC 11229) and S. aureus (ATCC 6538) were hydrated, grown for four days and transferred. Then bacteria were diluted to form a suspension to have an initial concentration of about 10^8 cfu/mL.
(§3) Freeze-dried pellets of E. coli (ATCC 11229) and S. aureus (ATCC 6538) were hydrated, placed in test tubes containing nutrient agar and incubated at 37° C. for 24 hours. Sterile buffer (0.25 M phosphate adjusted to pH 7.2) was used to dilute and transfer the bacteria to additional nutrient agar tubes, which were incubated for another 24 hours. S. aureus was then diluted with buffer and transferred to nutrient agar in French bottles, and E. coli was diluted and transferred to fresh nutrient agar tubes. Both types of bacteria were incubated at 37° C. for 72 hours. E. coli was then diluted and transferred to nutrient agar in French bottles. […]
(§4) The plates with bacterial populations between 25 and 250 were counted and results were expressed as logarithmic reductions according to EN 1656 test method.

E. coli (ATCC 11229) = assay: as above; type: cell-based, Escherichia coli; details: 10% lactic acid used alone, typical
Procedure: as §1, §2, §3, §4

CC(O)C(=O)O (stereo not drawn) [lactic acid, L(+)-2-Hydroxypropanoic acid]
log reduction in S. aureus concentration (S. aureus (ATCC 6538)): less than a three log reduction
log reduction in E. coli concentration (E. coli (ATCC 11229)): five log reduction
